# Columns and labels:
# human LXR alpha = biological target: T1, human LXR alpha (Homo sapiens, UniProt Q13133); assay: Radioligand binding assay (scintillation proximity), LXR alpha; conditions: GST-LXR alpha-LBD on SPA beads, radioligand displacement; read-out: LXRalpha Binding IC50
# T1 construct: human LXR alpha (aa 164 to 447); made in house; host or cells: E. coli BL21(pLysS)
# T1 sequence (Q13133 164-447): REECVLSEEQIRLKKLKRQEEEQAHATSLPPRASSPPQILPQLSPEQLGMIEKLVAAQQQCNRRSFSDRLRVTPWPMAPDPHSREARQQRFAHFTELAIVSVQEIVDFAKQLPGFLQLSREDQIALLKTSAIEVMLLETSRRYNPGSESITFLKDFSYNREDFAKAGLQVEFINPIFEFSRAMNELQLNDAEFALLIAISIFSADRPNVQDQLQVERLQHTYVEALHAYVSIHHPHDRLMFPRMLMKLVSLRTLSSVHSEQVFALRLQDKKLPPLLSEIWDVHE
# From the text: (§1) Mammalian expression vectors were constructed to express full-length human LXR alpha and LXR beta. Bacterial expression vectors were constructed to produce glutathione-s-transferase (GST) fused to the ligand binding domains (LBD) of human LXR alpha (aa 164 to 447) and human LXR beta (aa 155 to 460). To accomplish this, the portions of the sequences encoding the LBDs were amplified from full-length clones by PCR and then subcloned into the plasmid vectors. Final clones were verified by DNA sequence analysis (Willy et al., Genes Dev. 1995, 9:1033-45; Song et al., Proc Natl Acad Sci USA. 1994, 91:10809-13).
# (§2) Induction, expression, and purification of GST-LBD fusion proteins were performed in E. coli strain BL21(pLysS) cells by standard methods (Ref: Current Protocols in Molecular Biology, Wiley Press, edited by Ausubel et al).
# (§3) LXR alpha and LXR beta receptor binding were assayed in buffer consisting of 50 mM HEPES, pH 7.4, 10 mM NaCl, 5 mM MgCl2. For each 96-well reaction, 500 ng of GST-LXR alpha-LBD or 700 ng of GST-LXR beta-LBD fusion proteins were bound to 80 μg or 40 μg SPA beads (Pharmacia Amersham) respectively, in a final volume of 50 μl by shaking. The resulting slurry was incubated for 1 h at RT and centrifuged for 2 min at 1300×g. The supernatant containing unbound protein was removed, and the semi-dry pellet containing the receptor-coated beads was re-suspended in 50 μl of buffer. Radioligand (eg. 100,000 dpm of (N-(2,2,2-trifluoroethyl)-N-[4-(2,2,2-trifluoro-1-hydroxy-1-trifluoromethylethyl)-phenyl]-benzenesulfonamide)) was added, and the reaction incubated at RT for 1 h in the presence of test compounds, and then scintillation proximity counting was performed. All binding assays were performed in 96-well plates and the amount of bound ligand was measured on a Packard TopCount using OptiPlates (Packard). Dose response curves were measured within a range of concentration from 10^−10 M to 10^−4 M.
# human LXR beta = biological target: T2, human LXR beta (Homo sapiens, UniProt P55055); assay: Radioligand binding assay (scintillation proximity), LXR beta; conditions: GST-LXR beta-LBD on SPA beads, radioligand displacement; read-out: LXRbeta Binding IC50
# T2 construct: human LXR beta (aa 155 to 460); made in house; host or cells: E. coli BL21(pLysS)
# T2 sequence (P55055 155-460): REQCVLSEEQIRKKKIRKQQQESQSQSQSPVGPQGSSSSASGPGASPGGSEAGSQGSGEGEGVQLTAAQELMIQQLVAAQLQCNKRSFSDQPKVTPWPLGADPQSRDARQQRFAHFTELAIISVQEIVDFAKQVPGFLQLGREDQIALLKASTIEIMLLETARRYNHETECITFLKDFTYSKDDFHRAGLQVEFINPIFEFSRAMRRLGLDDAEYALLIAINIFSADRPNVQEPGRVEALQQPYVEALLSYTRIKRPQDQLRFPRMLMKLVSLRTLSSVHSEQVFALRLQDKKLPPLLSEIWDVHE
# From the text: as §1, §2, §3
IC50 (human LXR alpha),IC50 (human LXR beta),Compound
93 nM,14 nM,"COC(=O)c1ccc(OC(COc2ccc(C(O)(C(F)(F)F)C(F)(F)F)cc2)c2ccccc2)cc1 (racemic) [Example 11, rac 4-{1-Phenyl-2-[4-(2,2,2-trifluoro-1-hydroxy-1-trifluoromethyl-ethyl)-phenoxy]-ethoxy}-benzoic acid methyl ester]"
237 nM,236 nM,"OC(c1ccc(OCc2ccccc2)c(Cl)c1)(C(F)(F)F)C(F)(F)F [Example 13, 2-(4-Benzyloxy-3-chloro-phenyl)-1,1,1,3,3,3-hexafluoro-propan-2-ol]"
33 nM,22.7 nM,"Cc1oc(-c2cccc(Cl)c2)nc1COc1ccc(C(O)(C(F)(F)F)C(F)(F)F)cc1Cl [Example 57, 2-{3-Chloro-4-[2-(3-chloro-phenyl)-5-methyl-oxazol-4-ylmethoxy]-phenyl}-1,1,1,3,3,3-hexafluoro-propan-2-ol]"

# From patent US7473705B2, “Hexafluoroisopropanol substituted ether derivatives” (Hoffmann-LA Roche Inc., priority 2004, dated 2009)
